Measured values: patent US11566007B2, “Ras inhibitors” (Revolution Medicines, Inc., priority 2019, dated 2023)

What was measured:
K-Ras G12C = K-Ras G12C (Homo sapiens (Human), UniProt P01116+P62937, G12C); experiment: Ras-Raf (BRAF RBD) disruption / FRET / MOA assay, KRAS G12C; type: biochemical; details: KRAS G12C; Ras-Raf disruption/FRET/MOA assay; read-out: IC50* KRAS G12C FRET data
Summary of the method: (§1)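 TR-FRET read-out: a drop in ratio relative to DMSO wells marks disruption of the Ras:RAF complex, reported as IC50. Compounds (3-fold series, 10 points, top 30 μM final) incubated 3 h at 25° C before Eu-anti-His 10 nM and APC-anti-GST 50 nM, 1.5 h more.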

KRAS G12S = KRAS G12S (Homo sapiens (Human), UniProt P01116+P62937, G12S); experiment: Ras-Raf (BRAF RBD) disruption / FRET / MOA assay, KRAS G12S; type: biochemical; details: Ras-Raf disruption/FRET/MOA assay; class symbols; read-out: KRAS G12S FRET data IC50
Summary of the method: as §1

NRAS G12C = NRAS G12C (Homo sapiens (Human), UniProt P01111+P62937, G12C); experiment: Ras-Raf (BRAF RBD) disruption / FRET / MOA assay, NRAS G12C; type: biochemical; details: read-out: IC50* NRAS G12C FRET data
Summary of the method: as §1

NRAS WT = NRAS WT (Homo sapiens (Human), UniProt P01111+P62937); experiment: Ras-Raf (BRAF RBD) disruption / FRET / MOA assay, NRAS WT; type: biochemical; details: read-out: IC50* NRAS WT FRET data
Summary of the method: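 Compounds were tested as a 10-point 3-fold dilution series from 30 μM final for their ability to drive ternary complex formation between nucleotide-loaded Ras and cyclophilin A, displacing the BRAF RBD. After 3 h at 25° C., anti-His Eu-W1024 (10 nM) and anti-GST allophycocyanin (50 nM) were added for 1.5 h. A TR-FRET ratio decrease versus DMSO gave IC50.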

KRAS G12V = KRAS G12V (Homo sapiens (Human), UniProt P01116+P62937, G12V); experiment: Ras-Raf (BRAF RBD) disruption / FRET / MOA assay, KRAS G12V; type: biochemical; details: read-out: IC50* KRAS G12V FRET data
Summary of the method: as §1

KRAS G13D = KRAS G13D (Homo sapiens (Human), UniProt P01116+P62937, G13D); experiment: Ras-Raf (BRAF RBD) disruption / FRET / MOA assay, KRAS G13D; type: biochemical; details: read-out: IC50* KRAS G13D FRET data
Summary of the method: as §1

[1] = test system: NCI-H358 cells (K-Ras G12C); experiment: Potency assay: pERK in NCI-H358 cells; type: cell-based, human; details: Homo sapiens, NCI-H358; H358 KRAS G12C; read-out: pERK EC50
Summary of the method: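 pERK decrease read by AlphaLISA SureFire p-ERK1/2 or In-Cell Western after 4 h compound exposure at 37 °C, 5% CO2.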

Chain of K-Ras G12C (P01116-2 other isoform, or with tags, fused parts or gaps G12C): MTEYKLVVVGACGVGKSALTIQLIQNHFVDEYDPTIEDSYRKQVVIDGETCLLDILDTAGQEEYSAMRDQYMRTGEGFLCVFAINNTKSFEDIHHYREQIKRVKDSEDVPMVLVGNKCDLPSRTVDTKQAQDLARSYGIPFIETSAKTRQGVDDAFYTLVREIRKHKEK
Chain of K-Ras G12C (P62937 whole entry): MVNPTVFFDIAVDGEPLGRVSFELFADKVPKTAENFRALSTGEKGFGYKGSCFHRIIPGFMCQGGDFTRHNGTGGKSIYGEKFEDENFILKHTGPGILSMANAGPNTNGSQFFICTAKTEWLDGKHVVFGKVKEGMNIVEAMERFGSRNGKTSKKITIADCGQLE
Chain of NRAS WT (P01111 whole entry): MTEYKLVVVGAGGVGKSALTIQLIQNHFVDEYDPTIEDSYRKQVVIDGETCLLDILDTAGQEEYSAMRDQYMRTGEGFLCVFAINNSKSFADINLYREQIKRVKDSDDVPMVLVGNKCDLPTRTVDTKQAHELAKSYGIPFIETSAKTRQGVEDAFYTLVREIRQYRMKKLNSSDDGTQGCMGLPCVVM
Chain of NRAS WT (P62937 whole entry): as the sequence (P62937 whole entry) above
Chain of NRAS G12C (P01111 whole entry G12C): as the sequence (P01111 whole entry) above, with G12C counted along it
Chain of NRAS G12C (P62937 whole entry): as the sequence (P62937 whole entry) above
Chain of KRAS G12S (P01116-2 other isoform, or with tags, fused parts or gaps G12S): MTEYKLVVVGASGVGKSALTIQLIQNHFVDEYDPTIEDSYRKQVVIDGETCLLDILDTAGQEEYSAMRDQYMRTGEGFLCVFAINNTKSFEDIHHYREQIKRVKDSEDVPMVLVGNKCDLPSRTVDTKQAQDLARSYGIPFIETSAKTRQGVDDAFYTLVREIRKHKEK
Chain of KRAS G12S (P62937 whole entry): as the sequence (P62937 whole entry) above
Chain of KRAS G13D (P01116-2 other isoform, or with tags, fused parts or gaps G13D): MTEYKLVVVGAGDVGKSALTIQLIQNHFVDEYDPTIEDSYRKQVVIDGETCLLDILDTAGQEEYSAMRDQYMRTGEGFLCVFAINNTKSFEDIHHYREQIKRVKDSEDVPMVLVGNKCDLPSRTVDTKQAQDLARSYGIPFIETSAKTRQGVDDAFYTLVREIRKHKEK
Chain of KRAS G13D (P62937 whole entry): as the sequence (P62937 whole entry) above
Chain of KRAS G12V (P01116-2 other isoform, or with tags, fused parts or gaps G12V): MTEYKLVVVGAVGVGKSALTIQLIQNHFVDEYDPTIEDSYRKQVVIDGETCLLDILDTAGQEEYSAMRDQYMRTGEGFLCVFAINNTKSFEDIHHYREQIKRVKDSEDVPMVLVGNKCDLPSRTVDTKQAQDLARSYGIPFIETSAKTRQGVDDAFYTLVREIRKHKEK
Chain of KRAS G12V (P62937 whole entry): as the sequence (P62937 whole entry) above

Row | Compound | IC50 (K-Ras G12C) | IC50 (KRAS G12S) | IC50 (NRAS G12C) | IC50 (NRAS WT) | IC50 (KRAS G12V) | IC50 (KRAS G13D) | EC50 [1]
1 | CCn1c(-c2cccnc2[C@H](C)OC)c2c3cc(ccc31)-c1csc(n1)C[C@H](NC(=O)[C@H](C(C)C)N(C)C(=O)N1C[C@@H]3CN(C(=O)C#CC(C)(C)N(C)C)CC[C@@H]31)C(=O)N1CCC[C@H](N1)C(=O)OCC(C)(C)C2 (atropisomer, axis not shown) [Example A625] | 100 to 1000 nM | 100 to 1000 nM | 100 to 1000 nM | 100 to 1000 nM | 100 to 1000 nM | 1000 to 10000 nM | < 5 µM
2 | C=CC(=O)N(C)[C@H]1CN(C(=O)N(C)[C@H](C(=O)N[C@H]2Cc3nc(cs3)-c3ccc4c(c3)c(c(-c3cccnc3[C@H](C)OC)n4CC)CC(C)(C)COC(=O)[C@@H]3CCCN(N3)C2=O)C(C)C)C[C@@H]1F (atropisomer, axis not shown) [Example A632] | 10 to 100 nM | 100 to 1000 nM | 10 to 100 nM | 100 to 1000 nM | 100 to 1000 nM | 1000 to 10000 nM | < 5 µM
3 | C=CC(=O)N(C)[C@@H]1C[C@H](C)N(C(=O)N(C)[C@H](C(=O)N[C@H]2Cc3nc(cs3)-c3ccc4c(c3)c(c(-c3cccnc3[C@H](C)OC)n4CC)CC(C)(C)COC(=O)[C@@H]3CCCN(N3)C2=O)C(C)C)C1 (atropisomer, axis not shown) [Example A633] | 100 to 1000 nM | 100 to 1000 nM | 10 to 100 nM | 10 to 100 nM | 100 to 1000 nM | 100 to 1000 nM | < 5 µM
4 | C=CC(=O)N(C)[C@@H]1C[C@@H](C)N(C(=O)N(C)[C@H](C(=O)N[C@H]2Cc3nc(cs3)-c3ccc4c(c3)c(c(-c3cccnc3[C@H](C)OC)n4CC)CC(C)(C)COC(=O)[C@@H]3CCCN(N3)C2=O)C(C)C)C1 (atropisomer, axis not shown) [Example A634] | 10 to 100 nM | 100 to 1000 nM | 10 to 100 nM | 100 to 1000 nM | 100 to 1000 nM | 1000 to 10000 nM | < 5 µM
5 | C=CC(=O)N1CCCC2(CCN(C(=O)N(C)[C@H](C(=O)N[C@H]3Cc4nc(cs4)-c4ccc5c(c4)c(c(-c4cccnc4[C@H](C)OC)n5CC)CC(C)(C)COC(=O)[C@@H]4CCCN(N4)C3=O)C(C)C)CC2)C1 (atropisomer, axis not shown) [Example A635] | 100 to 1000 nM | 100 to 1000 nM | 100 to 1000 nM | 100 to 1000 nM | 100 to 1000 nM | 1000 to 10000 nM | < 5 µM
6 | C=CC(=O)N1CC2(CCN2C(=O)N(C)[C@H](C(=O)N[C@H]2Cc3cccc(n3)-c3ccc4c(c3)c(c(-c3cccnc3[C@H](C)OC)n4CC)CC(C)(C)COC(=O)[C@@H]3CCCN(N3)C2=O)C(C)C)C1 (atropisomer, axis not shown) [Example A636] | 10 to 100 nM | 100 to 1000 nM | 10 to 100 nM | 100 to 1000 nM | 1000 to 10000 nM | 1000 to 10000 nM | < 5 µM
7 | CCn1c(-c2cccnc2[C@H](C)OC)c2c3cc(ccc31)-c1csc(n1)C[C@H](NC(=O)C[C@@H](C)OC1CN(C(=O)C#CC(C)(C)N(C)C)C1)C(=O)N1CCC[C@H](N1)C(=O)OCC(C)(C)C2 (atropisomer, axis not shown) [Example A638] | < 10 nM | 1000 to 10000 nM | < 10 nM | 1000 to 10000 nM | 1000 to 10000 nM | 1000 to 10000 nM | < 5 µM
8 | C=CC(=O)N1CC[C@H](C(=O)N(C)[C@H](C(=O)N[C@H]2Cc3cccc(c3)-c3ccc4c(c3)c(c(-c3cccnc3[C@H](C)OC)n4CC)CC(C)(C)COC(=O)[C@@H]3CCCN(N3)C2=O)[C@@H](C)C(F)(F)F)C1 (atropisomer, axis not shown) [Example A640] | 100 to 1000 nM | 1000 to 10000 nM | 100 to 1000 nM | 1000 to 10000 nM | 1000 to 10000 nM | 1000 to 10000 nM | < 5 µM
